# From patent US20060153958A1, “Relating to flavour compositions” (priority 2003, published 2006)
# What was measured:
# Streptococcus mutans R9 [1] = test: Synergy of flavour material with fluoride in reducing acid production (bottle pH test); assay type: cell-based; details: flavour material at 250 ppm plus fluoride (NaF); 2% glucose; anaerobic incubation 18-24 hours; pH difference between broths
# Protocol: (§1) 250 ml of PM broth (of formulation as described in Example 1(a) above) was charged to a Duran bottle bunged with a breathable stopper and inoculated with a loopful of Streptococcus mutans R9 (as above). The bacterial culture was then incubated anaerobically for 2-3 days at 37° C., followed by centrifugation at 3600 rpm for 10 minutes. The supernatant was decanted to waste. The pellets remaining were resuspended in 12 ml of 0.1% peptone and the optical density at 540 nm (OD540) measured and adjusted (if required) by diluting with fresh PM broth to between 0.2 and 0.3 to give a stock inoculum culture.
# (§2) Broth was prepared by adding 4% (w/v) glucose to 0.3% (w/v) TSB broth (GTSB). The broth was sterilised by aseptically passing the solution through a 0.22 μm filter into a sterile bottle.
# Control incubations were prepared by adding 2.5 ml of the stock inoculum culture (adjusted to an OD540 of 0.2-0.3) to 2.5 ml of GTSB containing 4% (w/v) glucose in 0.3% (w/v) TSB.
# A test flavour material/flavour was diluted in the GTSB to give a stock solution of flavour material/flavour with a final concentration of 25,000 ppm (250 mg flavour material/flavour in 10 ml of GTSB).
# Flavour material/flavour incubations were prepared by adding 2.5 ml of the stock inoculum culture to 2.45 ml of GTSB, and 50 μl of flavour material/flavour stock solution. Thus, flavour materials/flavours were tested at a final concentration of 250 ppm, for their efficacy in inhibiting acid production from 2% glucose.
# The mixtures were then incubated anaerobically.
# (§3) After anaerobic incubation of the resulting mixtures for 18-24 hours, the pH of the suspensions was measured using a 476530M combination pH electrode (Mettler Toledo, 64 Boston Road, Beaumont Leys, Leicester, LE4 1AW), calibrated using pH 4 and pH 7 buffers. Results were recorded as the difference in pH change between broths containing flavour material/flavour and an untreated control.
# Flavour materials useful in a flavour composition of the invention were tested at 250 ppm for their potential synergy with fluoride as described below.
# Control and flavour material incubations were prepared as described in Example 1(b) above.
# A fluoride stock solution (2,500 ppm F^−) was prepared by dissolving […] NaF in 10 ml of GTSB. For fluoride controls, 2.5 ml of stock inoculum culture was added to 2.48 ml of GTSB, and 20 μl of fluoride stock solution.
# For flavour material and fluoride incubations, 2.5 ml of stock inoculum culture was added to 2.43 ml of GTSB, 50 μl of flavour material stock solution and 20 μl of fluoride stock solution.
# The mixtures were incubated anaerobically.
# as §3, with “broths.” for “broths containing flavour material/flavour and an untreated control.”
# (§4) If the pH of the incubated broth containing flavour material and fluoride was higher than that measured for incubated broths containing either flavour material or fluoride, then this was considered to indicate that there had been a synergistic effect between the flavour material and fluoride in reducing the acid production of Streptococcus mutans.
# Streptococcus mutans R9 [2] = test: Synergy of flavour material with xylitol in reducing acid production (glucose/xylitol broth pH test); assay type: cell-based; details: anaerobic incubation 18-24 hours, pH difference between broths
# Protocol: Xylitol is a sugar substitute that has been used in many products as a non-cariogenic sweetener. The potential synergy between xylitol and a flavour material useful in the composition of the invention was investigated using a glucose/xylitol broth by the following method. Flavour materials were tested at 250 ppm unless otherwise stated.
# as §1, §2
# Control and flavour material incubations were prepared as described in Example 1(b) above. Xylitol synergy was investigated by adding 2.5 ml of stock inoculum culture to 2.5 ml of GTSB supplemented with 4% (w/v) xylitol. […]
# as §3, with “broths.” for “broths containing flavour material/flavour and an untreated control.”
# as §4, with “xylitol” for “fluoride”, “recorded” for “measured”, “xylitol,” for “fluoride,”, “was” for “had been”, “synergy” for “synergistic effect”, “mutans. […]” for “mutans.”
compound,measurement,setting,value
"CC(C)=CCCC(C)=CC=O [Citral Natural, citral]",Synergy with Fluoride,Streptococcus mutans R9 [1],+ (Inhibition of acid production by an additional 0.01-0.24 pH units)
Damascone,Synergy with Xylitol,Streptococcus mutans R9 [2]; flavour material at 250 ppm,++ (Inhibition of acid production by an additional 0.25-0.49 pH units)
"CC=Cc1ccc(OC)cc1 [Anethole Synthetic, anethole]",Synergy with Fluoride,Streptococcus mutans R9 [1],++++ (Inhibition of acid production by an additional 0.75 pH units or more (i.e. >0.75 pH units in addition to the effect of fluoride or flavour material alone))
"CCCCCCCCCO [Alcohol C9, nonanol]",Synergy with Xylitol,Streptococcus mutans R9 [2]; flavour material at 62.5 ppm,+++ (Inhibition of acid production by an additional 0.50-0.74 pH units)
"Cc1ccc(C(C)C)c(O)c1 [Thymol, thymol]",Synergy with Fluoride,Streptococcus mutans R9 [1],+ (Inhibition of acid production by an additional 0.01-0.24 pH units)
"CCCCCCCCCC=O [Aldehyde C10 (Decanal), decanal]",Synergy with Fluoride,Streptococcus mutans R9 [1],++ (Inhibition of acid production by an additional 0.25-0.49 pH units)
"CC(=O)/C=C/C1C(C)=CCCC1(C)C (stereo not drawn) [Ionone Alpha, ionone alpha]",Synergy with Xylitol,Streptococcus mutans R9 [2]; flavour material at 125 ppm,++++ (Inhibition of acid production by an additional 0.75 pH units or more (i.e. >0.75 pH units in addition to the effect of fluoride or flavour material alone))
"CCCCCCCCCCO [Alcohol C10 (Decanol), decanol]",Synergy with Fluoride,Streptococcus mutans R9 [1],++++ (Inhibition of acid production by an additional 0.75 pH units or more (i.e. >0.75 pH units in addition to the effect of fluoride or flavour material alone))
"O=C/C=C/c1ccccc1 [Cinnamic Aldehyde Extra, cinnamic aldehyde]",Synergy with Fluoride,Streptococcus mutans R9 [1],++ (Inhibition of acid production by an additional 0.25-0.49 pH units)
